One experiment deals with human mGlu5 (Homo sapiens, UniProt P41594). The experiment is described as follows: Radioligand displacement assay (radiolabeled MPEP) on membranes of HEK293 cells stably expressing mGlu5. The following applies: Ki, radioligand displacement; mean ± SEM of two experiments.
Chain of human mGlu5 (P41594 21-1212): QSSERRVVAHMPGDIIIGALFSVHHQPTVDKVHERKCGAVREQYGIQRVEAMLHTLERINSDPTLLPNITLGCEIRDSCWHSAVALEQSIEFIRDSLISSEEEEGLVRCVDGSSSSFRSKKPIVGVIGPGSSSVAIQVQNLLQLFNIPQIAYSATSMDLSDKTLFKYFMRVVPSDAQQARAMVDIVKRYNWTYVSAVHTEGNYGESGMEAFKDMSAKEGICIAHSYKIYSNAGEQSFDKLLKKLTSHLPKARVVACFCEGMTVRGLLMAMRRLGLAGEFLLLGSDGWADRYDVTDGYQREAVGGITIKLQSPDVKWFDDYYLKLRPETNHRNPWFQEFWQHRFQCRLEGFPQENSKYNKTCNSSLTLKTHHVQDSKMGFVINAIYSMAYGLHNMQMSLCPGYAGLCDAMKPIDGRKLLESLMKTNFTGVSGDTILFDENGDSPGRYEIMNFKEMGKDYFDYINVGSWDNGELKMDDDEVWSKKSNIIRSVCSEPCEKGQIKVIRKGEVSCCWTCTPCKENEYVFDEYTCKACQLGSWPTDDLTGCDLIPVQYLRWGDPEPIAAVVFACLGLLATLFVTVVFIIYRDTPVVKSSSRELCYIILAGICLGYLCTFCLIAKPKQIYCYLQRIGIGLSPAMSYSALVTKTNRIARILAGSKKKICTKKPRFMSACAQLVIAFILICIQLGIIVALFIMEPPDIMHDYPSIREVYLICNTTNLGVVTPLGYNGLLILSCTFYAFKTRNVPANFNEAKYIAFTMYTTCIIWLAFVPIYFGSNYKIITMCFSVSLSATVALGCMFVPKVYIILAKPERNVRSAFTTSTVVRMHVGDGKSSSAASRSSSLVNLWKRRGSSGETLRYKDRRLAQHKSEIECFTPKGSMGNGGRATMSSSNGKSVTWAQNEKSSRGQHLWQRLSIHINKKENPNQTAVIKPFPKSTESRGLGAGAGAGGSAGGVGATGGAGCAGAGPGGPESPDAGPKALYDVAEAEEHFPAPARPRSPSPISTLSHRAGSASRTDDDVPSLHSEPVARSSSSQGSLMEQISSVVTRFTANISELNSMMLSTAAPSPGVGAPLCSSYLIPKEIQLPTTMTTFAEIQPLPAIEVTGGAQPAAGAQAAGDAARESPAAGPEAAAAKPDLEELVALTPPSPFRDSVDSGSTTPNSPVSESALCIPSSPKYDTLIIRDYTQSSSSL
Description: Treated cells were harvested with PBS/2 mM EDTA and washed three times with ice-cold PBS and frozen at −80 °C. The frozen cell pellet was resuspended in membrane buffer (25 mM Tris/7.4, 250 mM sucrose, 2.5 mM EDTA, 2 ug/ml aprotinin, 0.5 ug/ml leupeptin and 200 nM PMSF) and homogenized with a polytron 20–30 s at maximum power. After centrifugation at 18,000 RPM for 30 min at 4 °C, the pellet was resuspended in ice-cold membrane buffer, hand-homogenized, and centrifuged as described above. This pellet was further resuspended in ice-cold membrane buffer. The protein content was measured using the Bradford method with bovine serum albumin as the standard. The membrane homogenate was frozen at −80 °C before use. After thawing, the membranes were washed once and resuspended in ice-cold 50 mM Tris–HCl, 0.9% NaCl, pH 7.4 buffer. All incubations were performed at room temperature. For the displacement binding experiments, 15 μg of membranes were incubated with 5 nM the radioligand in the presence of 10 varying concentrations of the test compound for 2 h at room temperature with shaking. At the end of the respective incubations, the suspension was filtered onto PerkinElmer GF/C glass fiber filters (1450–421) pre-soaked in 0.5% polyethyleneimine and washed rapidly four times using a Tomtec Harvester 96 Mach III cell harvester (Tomtec, Hamden, CT) with 5 mL of cold wash buffer (50 mM Tris–HCl, pH 7.4). The radioactivity trapped on the filters was measured after heat sealing the filters with MeltiLexTM A (PerkinElmer, 1450–441) in a 1450 MicroBeta TriLux counter (PerkinElmer). […] IC50 values were derived from the inhibition curve, and Ki values were calculated according to the Cheng-Prusoff equation of Ki = IC50/(1 + [L]/Kd),[61] where [L] is the concentration of radioligand and Kd is its dissociation constant at the receptor, derived from the saturation isotherm.
In general, Ki refers to a dissociation constant, usually derived from enzyme kinetics or from competition with a known ligand. A high value points to a looser hold on the target. The compound `N#Cc1ccc(NCC#Cc2ccccc2)cc1` [F3] registered a Ki of 3.4 ± 0.2 µM. Take `CN(Cc1cnn(-c2ccc(F)cc2)c1)c1nc(-c2ccccc2)no1` [L7]: the Ki came out at 7.9 ± 0.6 µM. For the compound `Cc1nc(-c2ccccc2)sc1C(C)N(C)C(=O)c1cnns1` (stereo not shown) [L6], the Ki is 7.3 ± 1.3 µM. Same read-out and setting: then `CC(c1nc(-c2ccco2)no1)n1nnc(-c2cccc(F)c2)n1` (stereo not shown) [L5], with 4.3 ± 0.9 µM.

Still in this experiment, the particulars now being: Table S1; radioligand displacement at 30 µM; mean ± SEM of two experiments.
In general, Inhibition refers to the relative decrease from the control value, in per cent. `Oc1ccccc1-c1n[nH]c(-c2ccncc2)n1` [F28]: the “Inhibition at 30 µM” value amounted to 27 ± 3%. Still for that read-out and setting: with `O=C(NCc1ccnc(-n2cccn2)c1)c1ccc(Br)o1` [L29] the figure was 30 ± 9%; with `Cc1ccccc1NC(=O)c1ccnc(Cl)c1` [F33], 26 ± 11%; with `Cc1ccc(C(=O)Nc2cccc(NC(=O)c3ccncc3)c2)s1` [L51], 20 ± 6%.

As for `O=C(NCc1cc(-c2ccco2)on1)c1cccc(Cl)c1` [L18], the “Inhibition at 30 µM” value is 34 ± 1%. As for `CCOc1ccc(C(=O)N2CC(OCc3ccc(F)cc3)C2)cc1` [L58], the “Inhibition at 30 µM” value stood at 16 ± 2%. Still for that read-out and setting: with `CC(=O)c1cccc(NCc2ccccc2)c1` [F9] the figure was 38 ± 1%; with `Cc1cccc(-c2c[nH]c(C3CCCN3C(=O)c3ccccn3)n2)c1` (stereo not shown) [L44], 26 ± 13%; with `CC(C)C(=O)N(C)Cc1nc2ccccc2[nH]1` [F45], 22 ± 9%.

For `OC(c1ccccc1)c1nc2cc(F)ccc2[nH]1` (stereo not shown) [F35], the “Inhibition at 30 µM” value turned out to be 25 ± 12%.

For `O=C(NCc1ccncc1)c1cccc(Cl)c1` [F36], the “Inhibition at 30 µM” value is 25 ± 3%.

As for `O=C(NCc1cccnc1)c1ccc(COc2ccccc2)o1` [L27], the “Inhibition at 30 µM” value is recorded as 31 ± 7%. Regarding `Cc1ccc(CNC(=O)c2ccn(COc3ccc(F)cc3)n2)o1` [L54], the “Inhibition at 30 µM” value came out at 18 ± 3%.

As for `CSc1ccc(C(=O)N(C)Cc2nc3ccccc3[nH]2)o1` [L17], the “Inhibition at 30 µM” value was determined as 35 ± 3%. Still for that read-out and setting: then `Cc1ccc(F)c(NC(=O)C2CC(=O)N(CCc3ccccc3)C2)c1` (stereo not shown) [L42], with 26 ± 5%. Same read-out and setting: with `c1ccc(Cc2n[nH]c(-c3ccncc3)n2)cc1` [L36] the figure was 29 ± 8%; with `CCN(Cc1nc(-c2ccncc2)no1)c1ccccc1` [L52], 20 ± 1%; with `O=C(Nc1cccc(F)c1)C1CCN(c2ccc(F)cc2)C1=O` (stereo not shown) [L23], 32 ± 1%. As for `COCc1cccc(Nc2cc(Cl)ncn2)c1` [F12], the “Inhibition at 30 µM” value turned out to be 35 ± 10%. Same read-out and setting: with `C=CCN1CC(c2nc3ccccc3[nH]2)CC1=O` (stereo not shown) [F49] the figure was 20 ± 1%; with `Cc1ccc(Cn2ccnc2C(=O)Nc2ccccc2)cc1` [L30], 30 ± 5%; with `CC(NC(=O)COc1ccc(Cl)cc1)C(=O)Nc1ccccc1` (stereo not shown) [L41], 26 ± 2%. Consider `O=C(CSc1n[nH]c(-c2cccnc2)n1)Nc1cccc(Cl)c1` [L21], for which the “Inhibition at 30 µM” value is given as 33 ± 12%.

For the compound `CCc1noc(COc2cccc(NC(=O)c3ccccc3)c2)n1` [L37], the “Inhibition at 30 µM” value is reported as 29 ± 4%.

In the case of `O=C(CNC(=O)c1ccco1)Nc1ccccc1` [F37], the “Inhibition at 30 µM” value was determined as 25 ± 4%. Still for that read-out and setting: with `O=C(CSc1ccc(-n2cccn2)nn1)Nc1ccccc1Cl` [L39] the figure was 27 ± 11%. On to `Cc1cccc(C(=O)NC(C)c2ccncc2)n1` (stereo not shown) [F39], for which the “Inhibition at 30 µM” value is 24 ± 9%. On to `COc1ccc(CNC(=O)c2ccncc2)cc1` [F42], for which the “Inhibition at 30 µM” value is given as 24 ± 8%. On to `O=C(Nc1ccccn1)c1cc2occc2n1Cc1ccccc1` [L38], for which the “Inhibition at 30 µM” value came to 27 ± 1%. The same measure, in the same setting: then `Clc1cccc(OCCCn2ccnc2)c1` [F56], with 18 ± 4%. For the compound `Cc1ccc(Cn2cccc2-c2nc(-c3ccncc3)no2)cc1` [L31], the “Inhibition at 30 µM” value is listed as 29 ± 4%. Still for that read-out and setting: with `Nc1ccccc1Sc1nc2ccccc2[nH]1` [F51] the figure was 20 ± 14%; with `Cc1ccoc1-c1nc(Cc2ccccc2)n[nH]1` [F23], 30 ± 7%.
